In patent US20230241121A1, “COMPOSITIONS AND METHODS RELATING TO EXOSOMES DERIVED FROM HUMAN DERMAL PAPILLA CELLS” (NORTH CAROLINA STATE UNIVERSITY, priority 2020, published 2023):

What was measured:
[1] = test system: Ki67; experiment: Immunostaining of Ki67 in dorsal skin hair follicles ten days after treatment; format: in vivo, C57BL/6 mice; conditions: day 10
From the text: (§1) Animals and in vivo studies. Seven-week-old male C57BL/6 mice were purchased from Jackson laboratory and allowed to adapt to their new environment for 1 week. Hair was removed by using depilatory cream to observe the pink skin. Then, animals were randomly divided into groups (n=5) randomly to investigate hair regrowth. Minoxidil was topically applied daily as a positive control. Other treatments were given subcutaneously. All work with mice was in accordance with IACUC. Cell treatment dose: 1.0×10^6 cells in 200 μL PBS were subcutaneously injected into 10 spots (20 μL per site) on the left side of the dorsal skin. Exosome treatment dose: 2.0×10^9 exosomes in 200 μL PBS were subcutaneously injected to 10 spots (20 μL per site) on the left side of the backs. Negative control, miR-218-5p mimics and inhibitors (Sigma-Aldrich): administered according to the protocol provided by in vivo-jetPEI™ (Polyplus transfection). In brief, mice received ten injections per depilated dorsal skin. 400 ng miRNA mimic or inhibitor was dissolved in 90 μl 5% glucose (w/v) solution, and then 10 μl in vivo-jet PEI solution was added. Vortex-mix the solution immediately and incubate for 15 minutes at room temperature before injection. Control groups were injected with mimic control.
(§2) Skin tissue histology. Mice were euthanized and the whole dorsal skin was removed. […]

[2] = test system: depilated C57BL/6 mice; experiment: Dorsal hair regrowth in depilated mice; format: in vivo
From the text: Animals and in vivo studies. Seven-week-old male C57BL/6 mice were purchased from Jackson laboratory and allowed to adapt to their new environment for 1 week. Hair was removed by using depilatory cream to observe the pink skin. Then, animals were randomly divided into groups (n=5) randomly to investigate hair regrowth. Minoxidil was topically applied daily as a positive control. Other treatments were given subcutaneously. All work with mice was in accordance with IACUC. Cell treatment dose: 1.0×10^6 cells in 200 μL PBS were subcutaneously injected into 10 spots (20 μL per site) on the left side of the dorsal skin. Exosome treatment dose: 2.0×10^9 exosomes in 200 μL PBS were subcutaneously injected to 10 spots (20 μL per site) on the left side of the backs. Negative control, miR-218-5p mimics and inhibitors (Sigma-Aldrich): administered according to the protocol provided by in vivo-jetPEI™ (Polyplus transfection). In brief, mice received ten injections per depilated dorsal skin. 400 ng miRNA mimic or inhibitor was dissolved in 90 μl 5% glucose (w/v) solution, and then 10 μl in vivo-jet PEI solution was added. Vortex-mix the solution immediately and incubate for 15 minutes at room temperature before injection. […]
The state of hair re-growth in depilated mice was photographed on days 0, 10, 15, and 20, and hair growth area was analyzed via morphological observation (FIGS. 3A-3D). […]

[3] = test system: β-catenin; experiment: Immunostaining of β-catenin in dorsal skin hair follicles ten days after treatment; format: in vivo, C57BL/6 mice; conditions: treated side, day 10
From the text: as §1, §2

[4] = test system: CD133; experiment: Immunostaining of CD133 in dorsal skin hair follicles ten days after treatment; format: in vivo, C57BL/6 mice; conditions: treated side, day 10
From the text: as §1, §2

Nc1cc(N2CCCCC2)nc(N)[n+]1[O-] [5% minoxidil, minoxidil]
Ki67 signals ([1]; non-treated side): 7.1%
Ki67 signals ([1]; treated side): 37.2%
fur coverage ([2]; day 15, treated side): 35%
fur coverage ([2]; day 15, untreated side): 10%
expression of β-catenin (β-catenin positive cells) [3]: 2.3%
expression of CD133 (CD133 positive cells) [4]: 7.2%
